Each structure is given as a SMILES string.

Experiment [1] in a line: Displacement of […] from GABAA receptor in rat brain. The experiment is classed as tissue-based. (In a radioligand displacement assay an active substance lowers the binding of a labelled ligand.)
The species named for experiment [2] is Rattus norvegicus. The experiment is described as follows: Activity at rat GABAA alpha-1-beta-2-gamma-2L receptor expressed in Xenopus laevis expressed in assessed as ratio of current in treated to non-treated oocyte at 10 uM by electrophysiology.
The species entered for experiment [3] is Rattus norvegicus. Kind of experiment: Activity at rat GABAA alpha-1-beta-2-gamma-2L receptor expressed in Xenopus laevis assessed as ratio of current in treated to non-treated oocyte at 0.1 uM by electrophysiology.
For experiment [4], the system named is Xenopus laevis. The experiment is described as follows: Anesthetic effect in Xenopus laevis assessed as loss of righting response. The experiment is classed as functional, organism-based.
The species entered for experiment [5] is Rattus norvegicus. The experiment is described as follows: Activity at rat GABAA alpha-1-beta-2-gamma-2L receptor expressed in Xenopus laevis expressed in assessed as ratio of current in treated to non-treated oocyte at 1 uM by electrophysiology.
In experiment [6] the test system is Xenopus laevis. The experiment is described as follows: Anesthetic effect in Xenopus laevis assessed as loss of swimming response. Format: functional, organism-based.
Experiment [7] is filed under the species Rattus norvegicus. The experiment is described as follows: Activity at rat GABAA alpha-1-beta-2-gamma-2L receptor expressed in Xenopus laevis assessed as ratio of current in drug-treated to GABA-treated oocyte at 10 uM by electrophysiology.

For `C[C@]12CC[C@@H](O)C[C@H]1CC[C@@H]1[C@@H]2CC[C@@]2(C)[C@H]1CC[C@@]21CO1`, the IC50 in experiment [1] turned out to be 220 nM. In addition, the Ratio in the experiment filed under Rattus norvegicus [2] stood at 25.4; in the experiment filed under Rattus norvegicus [3], 1.28; in the experiment filed under Rattus norvegicus [5], 5.17; in the experiment listed under Rattus norvegicus [7] it was 0.03. Besides, the EC50 in the experiment on Xenopus laevis [4] was found to be 990 nM; in the experiment with Xenopus laevis [6], 1730 nM.
`C[C@@]12CC[C@H](O)C[C@@H]1CC[C@@H]1[C@@H]2CC[C@@]2(C)C(=O)CC[C@@H]12` came in with an IC50 in experiment [1] of 380 nM. Further, the Ratio in the experiment listed under Rattus norvegicus [2] came out at 14.1; in the experiment listed under Rattus norvegicus [3], 1.4; in the experiment listed under Rattus norvegicus [5], 2.34; in the experiment filed under Rattus norvegicus [7] it was 0.09. Besides, the results for the EC50 in the experiment on Xenopus laevis [4] and with Xenopus laevis [6] were 1970 nM and 8900 nM, respectively.
In experiment [1], `C[C@]12CC[C@@H](O)C[C@@H]1CC[C@@H]1[C@@H]2CC[C@]2(C)C(=O)CC[C@@H]12` [ANDROSTERONE] showed an IC50 of 410 nM. Besides, the Ratio in the experiment filed under Rattus norvegicus [2] is 5.44; in the experiment filed under Rattus norvegicus [3] it was 0.97; in the experiment listed under Rattus norvegicus [5], 1.41; in the experiment filed under Rattus norvegicus [7], 0.02. For the same compound, the EC50 in the experiment with Xenopus laevis [4] was 3380 nM.
`CC(=O)[C@H]1CC[C@H]2[C@@H]3CC[C@@H]4C[C@H](O)CC[C@]4(C)[C@H]3CC[C@]12C` [ELTANOLONE]: the IC50 in experiment [1] stood at 71 nM. Besides, the Ratio in the experiment listed under Rattus norvegicus [2] worked out at 9.77; in the experiment filed under Rattus norvegicus [3], 1.2; in the experiment listed under Rattus norvegicus [5], 2.82; in the experiment listed under Rattus norvegicus [7], 0.06. For the same compound, the EC50 was 60 nM with Xenopus laevis [4] and 300 nM with Xenopus laevis [6].
As for `C[C@@]12CC[C@H](O)C[C@@H]1CC[C@@H]1[C@@H]2CC[C@]2(C)[C@H]1CC[C@]21CO1`, in experiment [1], the IC50 is 390 nM. In addition, the Ratio turned out to be 20.8 in the experiment listed under Rattus norvegicus [2], 1.86 in the experiment listed under Rattus norvegicus [3], 10.5 in the experiment listed under Rattus norvegicus [5] and 0.12 in the experiment listed under Rattus norvegicus [7]. For the same compound, the concentration for a half-maximal effect (EC50) turned out to be 1730 nM in the experiment with Xenopus laevis [4] and 2760 nM in the experiment on Xenopus laevis [6].
For the compound `C[C@]12CC[C@@H](O)C[C@@H]1CC[C@@H]1[C@@H]2CC[C@@]2(C)[C@H]1CC[C@@]21CO1`, the IC50 in experiment [1] was 110 nM. Besides, the Ratio in the experiment filed under Rattus norvegicus [2] is 33.7; in the experiment filed under Rattus norvegicus [3] it was 3.11; in the experiment listed under Rattus norvegicus [5] it was 21.9; in the experiment filed under Rattus norvegicus [7] it was 0.22. Further, the EC50 was found to be 1350 nM in the experiment on Xenopus laevis [4] and 2760 nM in the experiment on Xenopus laevis [6].
Turning to `CC(=O)[C@@H]1CC[C@H]2[C@@H]3CC[C@@H]4C[C@@H](O)CC[C@@]4(C)[C@H]3CC[C@@]12C`, the IC50 in experiment [1] came out at 1910 nM. The Ratio in the experiment filed under Rattus norvegicus [2] was found to be 1.17; in the experiment filed under Rattus norvegicus [3], 0.95; in the experiment listed under Rattus norvegicus [5], 0.92; in the experiment filed under Rattus norvegicus [7] it was 0.02. Also, the EC50 in the experiment with Xenopus laevis [4] is 970 nM; in the experiment on Xenopus laevis [6], > 5000 nM.
In experiment [1], `CC(=O)[C@@H]1CC[C@H]2[C@@H]3CC[C@H]4C[C@@H](O)CC[C@@]4(C)[C@H]3CC[C@@]12C` showed an IC50 of 280 nM. In addition, the Ratio in the experiment filed under Rattus norvegicus [2] worked out at 7.92; in the experiment filed under Rattus norvegicus [3] it was 1.28; in the experiment filed under Rattus norvegicus [5], 2.82; in the experiment filed under Rattus norvegicus [7], 0.06. Also, the EC50 in the experiment with Xenopus laevis [4] was 70 nM; in the experiment on Xenopus laevis [6] it was 890 nM.
Take `C[C@@]12CC[C@H](O)C[C@H]1CC[C@@H]1[C@@H]2CC[C@]2(C)[C@H]1CC[C@]21CO1`: in experiment [1], the IC50 amounted to 470 nM. The Ratio in the experiment filed under Rattus norvegicus [2] worked out at 26.3; in the experiment listed under Rattus norvegicus [3], 2.62; in the experiment listed under Rattus norvegicus [5], 15.9; in the experiment filed under Rattus norvegicus [7], 0.1. For the same compound, the figures for the EC50 in the experiment with Xenopus laevis [4] and in the experiment with Xenopus laevis [6] were 1080 nM and 2710 nM, respectively.
As for `C[C@@]12CC[C@H](O)C[C@H]1CC[C@@H]1[C@@H]2CC[C@@]2(C)C(=O)CC[C@@H]12`, in experiment [1], the IC50 was 310 nM. The Ratio in the experiment filed under Rattus norvegicus [2] came to 18.9; in the experiment filed under Rattus norvegicus [3] it was 1.27; in the experiment listed under Rattus norvegicus [5] it was 3.66; in the experiment listed under Rattus norvegicus [7], 0.03. Further, the EC50 in the experiment on Xenopus laevis [4] came out at 1420 nM; in the experiment on Xenopus laevis [6], 5480 nM.
In experiment [1], `CC(=O)[C@H]1CC[C@H]2[C@@H]3CC[C@H]4C[C@H](O)CC[C@]4(C)[C@H]3CC[C@]12C` [BREXANOLONE] registered an IC50 of 74 nM. The Ratio in the experiment listed under Rattus norvegicus [2] was 9.65; in the experiment filed under Rattus norvegicus [3] it was 1.26; in the experiment listed under Rattus norvegicus [5], 3.89; in the experiment filed under Rattus norvegicus [7], 0.37. The EC50 in the experiment on Xenopus laevis [4] came to 420 nM; in the experiment on Xenopus laevis [6], 5500 nM.
In turn, `C[C@]12CC[C@@H](O)C[C@H]1CC[C@@H]1[C@@H]2CC[C@]2(C)C(=O)CC[C@@H]12` [ETIOCHOLANOLONE] yielded an IC50 in experiment [1] of 4150 nM. In addition, the Ratio came out at 1.39 in the experiment filed under Rattus norvegicus [2], 0.89 in the experiment filed under Rattus norvegicus [3], 0.87 in the experiment filed under Rattus norvegicus [5] and 0 in the experiment listed under Rattus norvegicus [7].

A word on the IC50: it is the point on the concentration scale where inhibition reaches its midpoint. Low values mean greater potency in that assay, high ones weaker potency in that assay. By EC50 is commonly meant the concentration giving half of the maximal effect.
